Assay [1] deals with T1, 12-lipoxygenase (Homo sapiens, UniProt P18054).
T1 sequence (P18054 1-663): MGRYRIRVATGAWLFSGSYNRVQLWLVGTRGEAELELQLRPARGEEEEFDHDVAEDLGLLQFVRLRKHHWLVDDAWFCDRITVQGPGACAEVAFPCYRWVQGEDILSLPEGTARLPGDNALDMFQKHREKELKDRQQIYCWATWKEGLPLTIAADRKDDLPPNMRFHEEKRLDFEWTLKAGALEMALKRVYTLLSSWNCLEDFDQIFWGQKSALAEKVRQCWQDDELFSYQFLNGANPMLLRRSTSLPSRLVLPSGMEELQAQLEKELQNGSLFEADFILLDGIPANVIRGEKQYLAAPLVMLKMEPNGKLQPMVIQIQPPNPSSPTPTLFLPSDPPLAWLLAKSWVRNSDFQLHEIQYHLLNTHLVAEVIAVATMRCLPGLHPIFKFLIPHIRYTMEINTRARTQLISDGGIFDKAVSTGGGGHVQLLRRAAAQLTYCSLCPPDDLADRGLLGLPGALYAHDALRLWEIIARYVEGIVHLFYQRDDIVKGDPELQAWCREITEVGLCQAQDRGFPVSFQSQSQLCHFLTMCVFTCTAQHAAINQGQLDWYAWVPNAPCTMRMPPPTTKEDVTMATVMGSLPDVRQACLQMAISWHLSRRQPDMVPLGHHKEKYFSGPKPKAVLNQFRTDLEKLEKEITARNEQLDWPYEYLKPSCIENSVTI
The assay can be described thus: Inhibition of 12-lipoxygenase in human blood. It counts as cell-based. Also noted: 3 ml aliquots of human whole blood treated with heparin; from tissue; host or cells: human whole blood (heparinized). Conditions: human whole blood; calcium ionophore A 23 187 15 μg/ml; 37° C., 30 minutes; 12-HETE by HPLC. How it is done: 3 ml aliquots of human whole blood treated with heparin were incubated either with a compound according to the invention or with dimethyl sulfoxide at 37° C. for 5 minutes. Then 12-lipoxygenase was activated by addition of calcium ionophore A 23 187 (15 μg/ml blood). After incubation at 37° C. for 30 minutes and centrifugation, cell-free plasma was obtained. Plasma protein was precipitated by addition of 2 ml of ethanol per ml of plasma and then separated by centrifugation. After adjusting the ethanol content in the supernatant with water to 10% by volume, the 12-lipoxygenase product 12-HETE was enriched by solid phase extraction using an octadecyl silica column. The methanolic eluate was evaporated to dryness, diluted in 40% by volume of methanol, and the 12-HETE-content was determined by HPLC. The IC50 -values of the compounds of the invention prepared according to Examples 1, 8 and 16 were 2, 4 and 3 μmolar, respectively.

The target of assay [2] is T2, 5-lipoxygenase (Rattus norvegicus, UniProt P12527).
T2 construct: endogenous in cells; host or cells: RBL-1 cells (rat basophilic leukemia)
T2 sequence (P12527 1-673): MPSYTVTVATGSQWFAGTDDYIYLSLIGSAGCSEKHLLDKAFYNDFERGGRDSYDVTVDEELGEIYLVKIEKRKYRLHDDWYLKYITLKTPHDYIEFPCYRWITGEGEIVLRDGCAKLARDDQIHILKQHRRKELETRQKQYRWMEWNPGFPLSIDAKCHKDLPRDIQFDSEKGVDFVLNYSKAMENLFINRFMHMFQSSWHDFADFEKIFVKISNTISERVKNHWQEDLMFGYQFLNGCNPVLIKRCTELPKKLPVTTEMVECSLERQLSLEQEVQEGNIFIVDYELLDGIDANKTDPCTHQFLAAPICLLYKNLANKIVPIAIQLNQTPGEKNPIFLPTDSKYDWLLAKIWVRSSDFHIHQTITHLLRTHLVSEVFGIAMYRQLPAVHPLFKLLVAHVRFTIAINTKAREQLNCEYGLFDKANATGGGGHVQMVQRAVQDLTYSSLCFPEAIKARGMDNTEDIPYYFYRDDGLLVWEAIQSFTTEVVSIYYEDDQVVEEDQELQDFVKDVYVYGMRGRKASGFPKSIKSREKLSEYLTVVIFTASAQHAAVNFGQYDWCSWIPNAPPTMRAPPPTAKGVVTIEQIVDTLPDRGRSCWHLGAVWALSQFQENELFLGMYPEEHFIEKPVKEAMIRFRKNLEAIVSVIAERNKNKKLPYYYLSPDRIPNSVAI
The assay can be described thus: Inhibition of 5-lipoxygenase in RBL-1-cells. It counts as cell-based. To be noted: 20 μM [14C]-arachidonic acid, 20 μM calcium ionophore A 23 187, 10 minutes.

Assay [3] deals with T2, 5-lipoxygenase. As to the kind of experiment: Inhibition of Cell-free 5-lipoxygenase from RBL-1-cells (polarographic, 10,000 × g supernatant). The format is biochemical. Conditions: 10,000 × g supernatant of homogenized RBL-1-cells; arachidonic acid 75 μM; 35° C.; calculated IC50.

Molecules are shown by their SMILES.

Usually IC50 stands for the concentration needed to halve the response being measured. For the compound `CC(=O)N(O)Cc1ccc(C(O)C#Cc2ccccc2)cc1` (racemic) [Example 1, N-Hydroxy-N-[4-[1-hydroxy-3-phenyl-prop-2-yn-1-yl]benzyl]acetamide], the IC50 in assay [1] was 2 µM; in assay [2] it was 5 µM; in assay [3] it was 5 µM.
